From patent publication US5137822A, “Transformed yeasts having steroid-hydroxylase activity and process for hydroxylation of steroids using the said transformed yeasts” (Director-General of Agency of Industrial Science & …, priority 1987, dated 1992)
Read-outs that look alike come from different tables or passages of the source.

Columns and labels:
[1] = target: T1, bovine adrenocortical cytochrome P-45017α (Bos taurus, UniProt P05185); assay: C17-20-lyase activity of P-45017α-producing yeasts against 17-hydroxyprogesterone; assay type: cell-based; set-up: made in house; host or cells: Saccharomyces cerevisiae AH22(pAα1), microsomal fraction
T1 sequence (P05185 1-509): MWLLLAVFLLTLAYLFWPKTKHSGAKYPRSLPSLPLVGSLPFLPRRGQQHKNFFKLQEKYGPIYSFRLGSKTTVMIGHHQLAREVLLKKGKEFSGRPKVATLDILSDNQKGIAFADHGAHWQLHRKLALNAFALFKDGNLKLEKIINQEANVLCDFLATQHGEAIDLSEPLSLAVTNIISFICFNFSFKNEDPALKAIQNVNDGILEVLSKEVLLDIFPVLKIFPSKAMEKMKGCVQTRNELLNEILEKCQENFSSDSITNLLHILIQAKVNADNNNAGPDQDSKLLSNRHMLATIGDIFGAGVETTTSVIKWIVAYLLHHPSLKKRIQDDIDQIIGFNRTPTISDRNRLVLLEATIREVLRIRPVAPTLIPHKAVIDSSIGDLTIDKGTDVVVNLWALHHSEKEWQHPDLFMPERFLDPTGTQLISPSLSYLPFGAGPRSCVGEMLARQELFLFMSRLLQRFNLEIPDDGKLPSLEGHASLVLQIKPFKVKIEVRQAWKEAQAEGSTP

[2] = target: T1, bovine adrenocortical cytochrome P-45017α; conditions: s. cerevisiae ah22(paα1) culture, 10 µM
Experimental: S. cerevisiae AH22(pAα1) and AH22(pAAH5) were separately grown to each 7×10^6 cells/ml in an SD-synthetic-medium (2.0% glucose, 0.67% yeast nitrogen base without amino acids, and 20 μg/ml histidine). To 5.0 ml each of the medium was added 50 μl of 1 mM progesterone in ethanol solution containing 10 μCi of [^3 H]-progesterone (or 50 μl of 1 mM pregnenolone in ethanol solution containing 10 μCi of [3H]-pregnenolone) and the mixture was cultured while shaking. Each 1.0 ml of the medium was sampled at 0, 2, 5 and 23 hours and centrifugated. After 2.0 ml of dichloromethane was added to 0.8 ml of the supernatant, the mixture was vigorously agitated and centrifugated. The dichloromethane layer (1.0 ml) was evaporated to dryness and the residue was dissolved in 20 μl of ethanol/ethyl acetate (1:1 by volume). Ten μl of the solution was applied to TLC. The TLC was developed with chloroform containing 25% ethyl acetate at room temperature for 50 minutes and radioautographed. The silica gel of the spot on the film was scraped out from the plate and the radio activity of the gel was measured with a liquid scintillation counter.

[3] = target: T1, bovine adrenocortical cytochrome P-45017α; conditions: microsomes, 5 min, pH 7.4
Experimental: After S. cerevisiae AH22(pAα1) was grown to a cell density of 2.0×10^7 cells/ml, the cells were harvested from 1.8 l of the culture broth and suspended in 50 ml of a buffer A (10 mM Tris-HCl (pH 7.5), 2M sorbitol, 0.1 mM DTT and 0.2 mM EDTA). After 20 mg of Zymolyase 100,000 was added to the suspension, the mixture was incubated at 30° C. for 1 hour. The resulting spheroplasts were harvested by centrifugation (5,000 x g for 10 minutes). They were suspended in 100 ml of buffer A and centrifuged. By repeating the centrifugation, the spheroplasts were washed. They were resuspended in 30 ml of a buffer solution (10 mM Tris-HCl (pH 7.5), 0.65M sorbitol and 0.1 mM DTT) and subjected to ultra sonication at 50W for 5 minutes. The mixture was centrifuged at 10,000 x g for 20 minutes, and the supernatant was again centrifuged at 125,000 x g for 70 minutes. The precipitates were suspended in 2.0 ml of 0.1M potassium phosphate buffer (pH 7.4).
A mixture of 3.6 ml of a 100 mM potassium phosphate buffer (pH 7.4) and 100 μl of a 20 mM NADPH aqueous solution was preincubated at 37° C. for 5 minutes. […] Each 1.0 ml of the mixture was sampled at 0, 2 and 10 minutes and centrifugated. After 2.0 ml each of dichloromethane was added, the sample mixtures were vigorously agitated and centrifugated. The dichloromethane layer (1.0 ml) was evaporated to dryness and the residue was treated in the same manner as in Example 6.

SMILES: CC(=O)[C@@]1(O)CC[C@H]2[C@@H]3CCC4=CC(=O)CC[C@]4(C)[C@H]3CC[C@@]21C [17-hydroxyprogesterone]
- C17-20-lyase activity against 17-hydroxyprogesterone [1]: almost no C17-20 -lyase activity

SMILES: CC(=O)[C@H]1CC[C@H]2[C@@H]3CC=C4C[C@@H](O)CC[C@]4(C)[C@H]3CC[C@]12C [pregnenolone]
- conversion of pregnenolone to 17-hydroxypregnenolone ([2]; 2 h): 28%

SMILES: CC(=O)[C@H]1CC[C@H]2[C@@H]3CCC4=CC(=O)CC[C@]4(C)[C@H]3CC[C@]12C [progesterone]
- conversion of progesterone to 17-hydroxyprogesterone ([2]; 5 h): 87%
- conversion of progesterone to 17-hydroxyprogesterone ([2]; 23 h): 97%
- added progesterone converted to 17-hydroxyprogesterone ([3]; 2 µM): 88%
- added progesterone converted to 17-hydroxyprogesterone ([3]; 10 µM): 49%
- added progesterone converted to 17-hydroxyprogesterone ([3]; 50 µM): 17%
